{"source": "patent US20230235409A1", "about": "“METHOD OF PREDICTING THERAPEUTIC RESPONSE AND PROGNOSIS OF METASTATIC BREAST CANCER TO CHEMOTHERAPEUTIC AGENTS, AND TREATING METASTATIC BREAST CANCER” (Samsung Life Public Welfare Foundation, priority 2021, published 2023)", "test_system": "premenopausal HR+/HER2− metastatic breast cancer", "test": "Kaplan Meier PFS analysis of capecitabine-treated patients by five-gene marker combination", "format": "in vivo", "procedure": "Among 141 premenopausal HR+/HER2− MBC patients, a tumor sample was isolated from a group (n=62) administered with capecitabine, and sequencing was performed on the sample. CancerSCAN™ targeted panel sequencing was performed to detect 375 cancer-related gene variations, and transcriptome analysis was performed to detect overall gene expression patterns.\nA univariate Cox proportional hazard model was analyzed for each genetic variation/CNV, the p-value derived by the log-rank test was defined as a p-value cutoff of 0.05 as the criterion for a statistically significant difference, and 30 biomarkers with p-value<0.05 were selected as candidate markers. […] In other words, the description of “NF2+FAT3” includes the case where there exists a mutation in either NF2 or FAT3 gene.", "data": [{"compound": "CCCCCOC(=O)Nc1nc(=O)n([C@@H]2O[C@H](C)[C@@H](O)[C@H]2O)cc1F", "note": "[capecitabine]", "values": [{"measurement": "median PFS", "setting": "mutant group (mutation in NF2, FAT3, LRP1B, PTEN or RAD50), capecitabine-administered group n=62, FIG. 3", "value": 12, "unit": "months"}, {"measurement": "risk of mutant group relative to normal group (WT), PFS", "setting": "mutant group vs WT (no mutation in all five genes), capecitabine-administered patients, FIG. 3", "value": "about 5 times"}]}]}
